We go through 6 molecules from ChEMBL document CHEMBL2434903, “Synthesis and biological evaluation of furopyrimidine N,O-nucleosides” (Bioorg Med Chem, 2013).

Active and inactive are the calls of the source. No cut-off for these calls is given here.

For one data set, the system named is Poliovirus 1. The experiment in a line: Antiviral activity against Poliovirus 1 Sabin VR-1562 infected in African green monkey Vero cells assessed as inhibition of virus-induced cytopathogenicity. Type of data set: functional, cell-based. The conditions noted are these: Human poliovirus 1 strain Sabin.
A further data set relates to Coxsackievirus B4. The experiment in a line: Antiviral activity against Coxsackievirus B4 VR-1035 infected in African green monkey Vero cells assessed as inhibition of virus-induced cytopathogenicity. Type of data set: functional, organism-based.
Data set [1] is described as follows: Cytotoxicity against human MRC5 cells assessed as change in cell morphology after 24 to 96 hrs by light microscopic analysis. In kind it is cell-based.
Data set [2] is described as follows: Cytotoxicity against African green monkey BSC1 cells assessed as change in cell morphology after 24 to 96 hrs by light microscopic analysis. In kind it is cell-based, BSC-1. The conditions noted are these: chlorocebus aethiops.
The next data set deals with Echovirus E9. Briefly: Antiviral activity against Human echovirus 9 VR-1050 infected in African green monkey Vero cells assessed as inhibition of virus-induced cytopathogenicity. In kind it is functional, organism-based. In general terms: Protection from cytopathic effect is a common read-out in antiviral testing.
Data set [3] in a line: Cytotoxicity against African green monkey Vero cells assessed as change in cell morphology after 24 to 96 hrs by light microscopic analysis. Type of data set: cell-based. The conditions noted are these: chlorocebus sabaeus.
The next data set has as its system Human betaherpesvirus 5. Briefly: Antiviral activity against Cytomegalovirus VR-538 infected in human MRC5 cells assessed as inhibition of virus-induced cytopathogenicity. In kind it is functional, organism-based.
Data set [4] is described as follows: Cytostatic activity against African green monkey BSC1 cells by MTT assay. In kind it is ADME, cell-based, BSC-1. To be noted: chlorocebus aethiops. (In general: Tetrazolium assays rely on reduction of a dye to a coloured formazan, in cell work by metabolically active cells.)
The subject of the next data set is Human alphaherpesvirus 1. The experiment in a line: Antiviral activity against Herpes simplex virus type 1 VR-260 infected in African green monkey Vero cells assessed as inhibition of virus-induced cytopathogenicity. Type of data set: functional, organism-based.
Another data set relates to Human adenovirus 2. The experiment in a line: Antiviral activity against Adenovirus 2 VR-1080 infected in African green monkey Vero cells assessed as inhibition of virus-induced cytopathogenicity. In kind it is functional, organism-based.
Another data set relates to Human alphaherpesvirus 3. Briefly: Antiviral activity against Varicella-zoster virus VR-1367 infected in African green monkey BSC1 cells assessed as inhibition of virus plaque formation. Type of data set: functional, organism-based. To be noted: BSC-1.
Data set [5] is described as follows: Cytostatic activity against human MRC5 cells by MTT assay. In kind it is ADME, cell-based.
In the next data set the test system is Human alphaherpesvirus 2. The experiment in a line: Antiviral activity against Herpes simplex virus type 2 VR-734 infected in African green monkey Vero cells assessed as inhibition of virus-induced cytopathogenicity. In kind it is functional, organism-based.
Data set [6] is described as follows: Cytostatic activity against African green monkey Vero cells by MTT assay. In kind it is ADME, cell-based. The conditions noted are these: chlorocebus sabaeus.

One may read the CC50 as the concentration giving 50% cytotoxicity. Take `CCCc1cc2cn(C3CC(CO)N(C)O3)c(=O)nc2o1` (stereo not drawn): the inhibition result with Poliovirus 1, with Coxsackievirus B4, in the data set on Echovirus E9, with Human betaherpesvirus 5, in the data set on Human alphaherpesvirus 1 and in the data set with Human adenovirus 2 was “inactive” in each case. Also, the inhibition result in the data set on Human alphaherpesvirus 3 and with Human alphaherpesvirus 2 was “inactive” throughout. Moreover, the MCC in data set [1] is greater than 250 µM; in data set [2], greater than 250 µM; in data set [3] it was greater than 500 µM. The 50% cytotoxic concentration (CC50) in [4] turned out to be 7 µM; in [5], 31.2 µM; in [6], 31.2 µM.
With `Nc1nc2c(ncn2COCCO)c(=O)[nH]1`, the inhibition result with Poliovirus 1, in the data set on Coxsackievirus B4, in the data set on Echovirus E9, with Human betaherpesvirus 5, in the data set with Human alphaherpesvirus 1 and in the data set with Human adenovirus 2 was “Active” in each case. Further, the inhibition result in the data set with Human alphaherpesvirus 3 and in the data set on Human alphaherpesvirus 2 was “Active” each time.
`COc1ccc(-c2cc3cn(C4CC(CO)N(C)O4)c(=O)nc3o2)cc1` (racemic): the inhibition entry with Poliovirus 1, with Coxsackievirus B4, in the data set with Echovirus E9, with Human betaherpesvirus 5, in the data set with Human alphaherpesvirus 1 and with Human adenovirus 2 was “inactive” each time. For the same molecule, the inhibition entry with Human alphaherpesvirus 3 and in the data set with Human alphaherpesvirus 2 was “inactive” in each case. Moreover, the figures for the MCC in data set [1], in data set [2] and in [3] were 62 µM, 62 µM and 62.5 µM, respectively. For the same molecule, the results for the CC50 in data set [4], in data set [5] and in data set [6] were 7 µM, 31.2 µM and 62.5 µM, respectively.
`CCCCCc1ccc(-c2cc3cn(C4CC(CO)N(C)O4)c(=O)nc3o2)cc1` (racemic): the inhibition entry in the data set on Poliovirus 1, in the data set on Coxsackievirus B4, in the data set on Echovirus E9, in the data set on Human betaherpesvirus 5, in the data set with Human alphaherpesvirus 1 and in the data set on Human adenovirus 2 was “inactive” throughout. The inhibition entry in the data set on Human alphaherpesvirus 3 and in the data set with Human alphaherpesvirus 2 was “inactive” throughout. In addition, the MCC in [1], in [2] and in data set [3] was 6 µM throughout. Moreover, the CC50 in data set [4] was 0.7 µM; in [5], 1.5 µM; in data set [6], 3 µM.
With `CN1OC(n2cc3cc(-c4ccccc4)oc3nc2=O)CC1CO` (racemic), the inhibition entry in the data set on Poliovirus 1, in the data set on Coxsackievirus B4, in the data set on Echovirus E9, in the data set with Human betaherpesvirus 5, in the data set with Human alphaherpesvirus 1 and in the data set on Human adenovirus 2 was “inactive” in each case. The inhibition entry with Human alphaherpesvirus 3 and in the data set on Human alphaherpesvirus 2 was “inactive” in each case. Further, the MCC in data set [1] is greater than 250 µM; in [2], greater than 250 µM; in [3], 125 µM. The CC50 was determined as 32 µM in [4], 125 µM in data set [5] and 125 µM in [6].
In the case of `CN1OC(n2cc3ccoc3nc2=O)CC1CO` (racemic), the inhibition entry in the data set on Poliovirus 1, with Coxsackievirus B4, in the data set on Echovirus E9, in the data set with Human betaherpesvirus 5, with Human alphaherpesvirus 1 and with Human adenovirus 2 was “inactive” in each case. For the same molecule, the inhibition entry in the data set on Human alphaherpesvirus 3 and in the data set on Human alphaherpesvirus 2 was “inactive” in each case. Besides, the results for the MCC in [1], in [2] and in data set [3] were greater than 250 µM, greater than 250 µM and greater than 500 µM, respectively. In addition, the CC50 in [4] was 62 µM; in data set [5] it was greater than 250 µM; in data set [6], 125 µM.
